# Key:
# Bcr-Abl-KD = test: Nuclear localization by immunofluorescence in transfected Abl−/− fibroblasts (Bcr-Abl-KD); type: cell-based; conditions: LMB alone
# K562 cells [1] = test: Cell survival assay, K562 cells; type: cell-based; conditions: 72 hours treatment, then drug removal
# Method: […]. […] […].
# After 48 h (TonB, TonB210) or 72 h (K562), live cells were counted with the Trypan blue exclusion assay. Cells were then washed extensively with PBS and placed in growth media. Trypan blue cell counts were repeated every 48 h and followed by feeding with fresh media. Cell counts were stopped when the number of viable cells was higher than the number of cells originally plated.
# TonB cells = conditions: 48 hours treatment, with IL-3
# [2] = human, in vivo; cited from earlier work
# untransfected cells = test: TUNEL assay, untransfected cells; type: cell-based; conditions: STI571 alone, BCR-Abl-NES experiment
# Description: It is known that activation of the nuclear Abl tyrosine kinase by DNA damage can contribute to the induction of apoptosis (Gong et al., 1999; Wang, 2000). Similarly, when translocated into the nucleus, Bcr-Abl kinase can activate apoptosis. […]. […] However, removal of the inhibitor while maintaining the Bcr-Abl in the nucleus strongly stimulated apoptosis. […]. With this protocol, between 70–80% of the Bcr-Abl expressing cells were positive for TUNEL staining, whereas the apoptosis rate remained at the 10% level with untransfected cells (Table 2). By expressing Bcr-Abl-KD and treating cells with LMB alone, it was confirmed that an active nuclear Bcr-Abl kinase was required to induce apoptosis.
# Cell Death Assays. […] […].
# human leukemic cells = conditions: in vivo STI571 treatment; cited from earlier work
# [3] = human, in vivo; cited from earlier work; remark: listed apart in the source
# K562 cells [4] = test: Tyrosine-phosphorylated proteins in total cell lysates, K562; conditions: at the end of drug treatments
# Method: The tyrosine-phosphorylated proteins in total cell lysates were examined at the end of drug treatments and then before their precipitous death.
# Transfection and Immunoblotting. […] Immunoblots were performed using 1 μg/ml 4G10 monoclonal antibody against phosphotyrosine (Upstate Biotechnology, Waltham, Mass.), or 1 μg/ml monoclonal antibody against Abl (8E9) (Pharmingen, San Diego, Calif.).
Structure (SMILES),nuclear fraction of Bcr-Abl-KD (Bcr-Abl-KD),viable cell numbers (K562 cells [1]),viable cell numbers (TonB cells),toxicity observed in a phase I clinical trial [2],TUNEL-positive untransfected cells (untransfected cells),tumors eradicated (human leukemic cells),maximum tolerated dose [3],overall levels of tyrosine-phosphorylated proteins (K562 cells [4])
"CCC(=C/[C@H](C)C/C=C/C(C)=C/[C@@H](C)C(=O)[C@@H](C)[C@H](O)[C@@H](C)C/C(C)=C/C(=O)O)/C=C/[C@@H]1OC(=O)C=C[C@@H]1C [LMB, leptomycin B]",25–35%,initial decline in cell number,caused a reduction in cell numbers,neuronal toxicity,,,,
"Cc1ccc(NC(=O)c2ccc(CN3CCN(C)CC3)cc2)cc1Nc1nccc(-c2cccnc2)n1 [STI571, 4-[(4-methyl-piperazinyl)methyl]-N-[4-methyl-3-[[4-(3-pyrodnyl)-2-pyrimidinyl]amin]phenyl]benzamide methanesul-fonate]",,initial death,,,3%,70–100%,No maximum tolerated dose has been identified,decreased

# — US7238525B2, “Strategy for leukemia therapy” (The Regents of the University of California, priority 2000, dated 2007)
